Legend:
[1] = test system: AAD1-transformed T0 ‘Crenshaw’ creeping bentgrass events (pDAB3878, pDAB5042); test: Quizalofop-p-ethyl postemergence on AAD1-transformed T0 Crenshaw creeping bentgrass, visual % injury; format: in vivo, Agrostis stolonifera L. var. palustris
Protocol: After molecular confirmation was utilized to identify transgenic events, a number of transgenic events were tested for herbicide tolerance. Specific isolated transgenic events were selected and maintained vegetatively through division of the crowns and replanting the clonal pieces into fresh growth medium. Clonally propagated plants were maintained by periodic “mowing” of vegetative tissues.
Growth medium was prepared by mixing Promix® and sand in a 2 to 1 ratio. The medium was contained in plastic pots with a surface area of 84.6 square centimeters (cm^2). When required to maintain plant health, a fungicide, insecticide, and/or other chemical or physical treatment was applied to stock plants. The plants were maintained in a greenhouse with an approximate 14 hour photoperiod which was maintained at 24-27° C. during the day and 22-25° C. during the night. Nutrients (Peters Excel® 15-5-15 5-Ca 2-Mg and iron chelate) were applied in the irrigation solution as needed, and water was added on a regular basis. Supplemental lighting was provided with overhead metal halide 1000-Watt lamps when photosynthetically active radiation (PAR) dropped below 500.
Selected T0 plants were sprayed with quizalofop-p-ethyl (Assure II®, DUPONT, Wilmington, Del.) at rates ranging from 60 to 2,240 g ae/ha. […] This rate also controls susceptible monocot weed species. Measured amounts were placed individually in 25 mL glass vials and dissolved in a 4 mL volume of 1.0% (v/v) Agri-Dex® Crop Oil Concentrate (COC) from HELENA CHEMICAL (Collierville, Tenn.). Application solutions were prepared by serial dilution of the highest rate applied. One-half the volume of the highest rate stock solution (2 mL) was transferred to a clean 25 mL vial containing an equal volume of 1% COC and the diluted solution was mixed. Additional dilutions were prepared similarly by removing one-half the volume of the previous concentration (2 mL), and adding to an equal volume of 1% COC and mixing. When preparing the lowest concentration, the remaining one-half volume was discarded. All 2 mL stock solutions were further diluted by adding 10 mL aqueous mixture of 1.0% (v/v) COC, so that the final spray solutions were 12 mL in volume and contained 1.0% (v/v) COC.
Spray solutions were applied to the plant material with an overhead Mandel™ track sprayer equipped with a 8002E nozzles calibrated to deliver 187 L/ha over an application area of 0.503 square meters (m^2) at a spray height of 18 inches (46 cm) above average plant canopy height. Control plants were sprayed in the same manner with the COC blank.
The treated plants and control plants were placed in a greenhouse, and watered by sub-irrigation to prevent wash-off of the test compounds. At various times after application, the condition of the test plants as compared with that of the untreated plants was determined visually and scored on a scale of 0 to 100 percent (where 0 corresponds to no injury or growth inhibition and 100 corresponds to complete kill). Regenerated, non-transformed (NT) ‘Crenshaw’ or elite line 2905-2 creeping bentgrass plants and/or seed-derived clonally propagated plants served as quizalofop sensitive controls.

[2] = test system: Kentucky bluegrass cv Shamrock callus; test: Callus selection conditions with quizalofop and haloxyfop: Kentucky bluegrass; format: cell-based
Protocol: (§1) Selection conditions for creeping bentgrass cv Crenshaw and Kentucky bluegrass cv Shamrock were established using the grass-active herbicides, quizalofop and haloxyfop. Concentrations of quizalofop and haloxyfop ranged from 0 to 300 nM dissolved in defined callus maintenance media for each species. Callus tissue, derived from mature seeds of each species or cultivar, was used in the experiment. In the case of creeping bentgrass cv Crenshaw, calli maintained on CBG-3 medium were transferred to plates of CBG-3 medium containing either haloxyfop or quizalofop at 0, 50, 100, 150, 200, 250, and 300 nM final concentrations. Visual observations (growth of callus and development of necrosis) were made over a period of 1.5 months. For Kentucky bluegrass cv Shamrock and experimental line A98, calli maintained on KBG-2 were transferred to plates of KBG-2 medium containing 0, 50, 100, 150, 200, 250, and 300 nM final concentrations of the herbicides. Visual observations of callus growth and necrosis were made over a 2.5 month period. […] The calli became necrotic at lower concentrations of quizalofop relative to haloxyfop and the response was more rapid. […]

[3] = test system: AAD1 (v3)-transformed T0 corn events; test: Tolerance of T0 AAD1 (v3) corn plants (pDAB3404) to postemergence AOPP herbicides; format: in vivo
[4] = test system: creeping bentgrass cv Crenshaw callus; test: Callus selection conditions with quizalofop and haloxyfop: creeping bentgrass; format: cell-based, Agrostis stolonifera
Protocol: as §1

[5] = test system: Hi-II corn grown from seed; test: Lethal dose of AOPP herbicides on non-transformed Hi-II corn

CCOC(=O)[C@@H](C)Oc1ccc(Oc2cnc3cc(Cl)ccc3n2)cc1 [quizalofop-p-ethyl]
injury of events CBG12 and CBG23 ([1]; 120 g ae/ha): uninjured | injury of events CBG12 and CBG23 ([1]; 480 g ae/ha): less than 10% | Mean % Injury (SE) ([1]; event CBG2, 120 g ae/ha, 11 DAA): 30 (0) % | Mean % Injury (SE) ([1]; event CBG2, 120 g ae/ha, 14 DAA): 30 (0) % | Mean % Injury (SE) ([1]; event CBG2, 120 g ae/ha, 20 DAA): 25 (0) % | Mean % Injury (SE) ([1]; event CBG2, 480 g ae/ha, 11 DAA): 45% | Mean % Injury (SE) ([1]; event CBG2, 480 g ae/ha, 14 DAA): 45% | Mean % Injury (SE) ([1]; event CBG2, 480 g ae/ha, 20 DAA): 40% | Mean % Injury (SE) ([1]; event CBG4, 120 g ae/ha, 11 DAA): 70 (0) % | Mean % Injury (SE) ([1]; event CBG4, 120 g ae/ha, 14 DAA): 85 (0) % | Mean % Injury (SE) ([1]; event CBG4, 120 g ae/ha, 20 DAA): 90 (3) % | Mean % Injury (SE) ([1]; event CBG5, 120 g ae/ha, 11 DAA): 32 (6) % | Mean % Injury (SE) ([1]; event CBG5, 120 g ae/ha, 14 DAA): 42 (8) % | Mean % Injury (SE) ([1]; event CBG5, 120 g ae/ha, 20 DAA): 23 (7) % | Mean % Injury (SE) ([1]; event CBG5, 480 g ae/ha, 11 DAA): 30 (5) % | Mean % Injury (SE) ([1]; event CBG5, 480 g ae/ha, 14 DAA): 30 (5) % | Mean % Injury (SE) ([1]; event CBG5, 480 g ae/ha, 20 DAA): 10 (0) % | Mean % Injury (SE) ([1]; event CBG12, 120 g ae/ha, 11 DAA): 0 (0) % | Mean % Injury (SE) ([1]; event CBG12, 120 g ae/ha, 14 DAA): 0 (0) % | Mean % Injury (SE) ([1]; event CBG12, 120 g ae/ha, 20 DAA): 0 (0) % | Mean % Injury (SE) ([1]; event CBG12, 480 g ae/ha, 11 DAA): 5 (3) % | Mean % Injury (SE) ([1]; event CBG12, 480 g ae/ha, 14 DAA): 5 (3) % | Mean % Injury (SE) ([1]; event CBG12, 480 g ae/ha, 20 DAA): 5 (0) % | Mean % Injury (SE) ([1]; event CBG14, 120 g ae/ha, 11 DAA): 15 (5) % | Mean % Injury (SE) ([1]; event CBG14, 120 g ae/ha, 14 DAA): 18 (3) % | Mean % Injury (SE) ([1]; event CBG14, 120 g ae/ha, 20 DAA): 5 (5) % | Mean % Injury (SE) ([1]; event CBG14, 480 g ae/ha, 11 DAA): 30% | Mean % Injury (SE) ([1]; event CBG14, 480 g ae/ha, 14 DAA): 25% | Mean % Injury (SE) ([1]; event CBG14, 480 g ae/ha, 20 DAA): 15% | Mean % Injury (SE) ([1]; event CBG23, 120 g ae/ha, 11 DAA): 0 (0) % | Mean % Injury (SE) ([1]; event CBG23, 120 g ae/ha, 14 DAA): 0 (0) % | Mean % Injury (SE) ([1]; event CBG23, 120 g ae/ha, 20 DAA): 0 (0) % | Mean % Injury (SE) ([1]; event CBG23, 480 g ae/ha, 11 DAA): 7 (2) % | Mean % Injury (SE) ([1]; event CBG23, 480 g ae/ha, 14 DAA): 7 (3) % | Mean % Injury (SE) ([1]; event CBG23, 480 g ae/ha, 20 DAA): 0 (0) % | Mean % Injury (SE) ([1]; event CBG27, 120 g ae/ha, 11 DAA): 68 (3) % | Mean % Injury (SE) ([1]; event CBG27, 120 g ae/ha, 14 DAA): 75 (5) % | Mean % Injury (SE) ([1]; event CBG27, 120 g ae/ha, 20 DAA): 75 (5) % | Mean % Injury (SE) ([1]; event CBG27, 480 g ae/ha, 11 DAA): 85% | Mean % Injury (SE) ([1]; event CBG27, 480 g ae/ha, 14 DAA): 85% | Mean % Injury (SE) ([1]; event CBG27, 480 g ae/ha, 20 DAA): 85% | Mean % Injury (SE) ([1]; event CBG31, 120 g ae/ha, 11 DAA): 0% | Mean % Injury (SE) ([1]; event CBG31, 120 g ae/ha, 14 DAA): 5% | Mean % Injury (SE) ([1]; event CBG31, 120 g ae/ha, 20 DAA): 0% | Mean % Injury (SE) ([1]; event CBG32, 120 g ae/ha, 11 DAA): 5 (0) % | Mean % Injury (SE) ([1]; event CBG32, 120 g ae/ha, 14 DAA): 0 (0) % | Mean % Injury (SE) ([1]; event CBG32, 120 g ae/ha, 20 DAA): 0 (0) % | Mean % Injury (SE) ([1]; event CBG32, 480 g ae/ha, 11 DAA): 20% | Mean % Injury (SE) ([1]; event CBG32, 480 g ae/ha, 14 DAA): 20% | Mean % Injury (SE) ([1]; event CBG32, 480 g ae/ha, 20 DAA): 5% | Mean % Injury (SE) ([1]; event CBG33, 120 g ae/ha, 11 DAA): 8 (3) % | Mean % Injury (SE) ([1]; event CBG33, 120 g ae/ha, 14 DAA): 10 (0) % | Mean % Injury (SE) ([1]; event CBG33, 120 g ae/ha, 20 DAA): 5 (0) % | Mean % Injury (SE) ([1]; event CBG33, 480 g ae/ha, 11 DAA): 15% | Mean % Injury (SE) ([1]; event CBG33, 480 g ae/ha, 14 DAA): 15% | Mean % Injury (SE) ([1]; event CBG33, 480 g ae/ha, 20 DAA): 15% | Mean % Injury (SE) ([1]; event CBG38, 120 g ae/ha, 11 DAA): 14 (1) % | Mean % Injury (SE) ([1]; event CBG38, 120 g ae/ha, 14 DAA): 13 (3) % | Mean % Injury (SE) ([1]; event CBG38, 120 g ae/ha, 20 DAA): 6 (1) % | Mean % Injury (SE) ([1]; event CBG38, 480 g ae/ha, 11 DAA): 22 (4) % | Mean % Injury (SE) ([1]; event CBG38, 480 g ae/ha, 14 DAA): 22 (4) % | Mean % Injury (SE) ([1]; event CBG38, 480 g ae/ha, 20 DAA): 13 (2) %

CC(Oc1ccc(Oc2ncc(C(F)(F)F)cc2Cl)cc1)C(=O)O (centres unmarked) [haloxyfop]
concentration needed to kill all calli [2]: 300 nM | % Injury 14 DAT ([3]; 8.8 g ae/ha, construct 3404 event 001 clone 016): 0% | % Injury 14 DAT ([3]; 8.8 g ae/ha, construct 3404 event 022 clone 019): 0% | % Injury 14 DAT ([3]; 8.8 g ae/ha, construct 3404 event 038 clone 016): 0% | % Injury 14 DAT ([3]; 17.5 g ae/ha, construct 3404 event 022 clone 016): 0% | % Injury 14 DAT ([3]; 17.5 g ae/ha, construct 3404 event 022 clone 020): 0% | concentration sufficient to kill callus within six weeks [4]: 250 nM | lethal dose ([5]; Gallant super + 1% COC (v/v)): 8.8 g ae/ha) | rate that effectively kills (>95% injury) three to four leaf Hi-II corn ([5]; postemergence, commercial formulations): 8.8 g ae/ha
